Measured values from article PMC6409085, “Three odorant-binding proteins are involved in the behavioral response of Sogatella furcifera to rice plant volatiles” (PeerJ, 2019).
Where “and” joins values, the source holds several entries; their conditions need not be identical. Identical values can stand only once.

Legend:
[1] = tested on: S. furcifera adults; assay: Y-tube olfactometer behavioral trials; assay type: in vivo, Sogatella furcifera; conditions: odorant 50 µL/L vs hexane; adults
Summary of the method: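 Single S. furcifera adults (2 days post-emergence, starved 0.5 h) chose between odorant (100 µL of 50 µL/L on filter paper) and hexane control in a glass Y-tube, charcoal-filtered humidified air 300 mL/min per arm, 25 ± 1 °C, 50% RH. Choice scored if insect passed half an arm and stayed >1 min within 10 min; 45 insects per compound, chi-squared test.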

[2] = target: SfurOBP2 (Sogatella furcifera, UniProt V5T759); assay: biochemical; assay type: binding
Summary of the method: (§1)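 Fluorescence competitive binding with 1-NPN as reporter: 2.0 µM protein and 2.0 µM 1-NPN in 50 mM Tris-HCl pH 7.4, odorant added at 2–20 µM final. Excitation 337 nm, emission 390–490 nm read 2 min after addition, triplicates. Ki = IC50/(1 + [1-NPN]/K1-NPN).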

[3] = target: SfurOBP1 (Sogatella furcifera, UniProt V5T8N5); assay: biochemical; assay type: binding; conditions: for Fluorescence competitive binding assay, fluorescence intensity: OBP1, three replicate columns
Summary of the method: as §1

[4] = target: SfurOBP3 (Sogatella furcifera, UniProt V5T818); assay: biochemical; assay type: binding; conditions: for Fluorescence competitive binding assay, fluorescence intensity: OBP3, three replicate columns
Summary of the method: as §1

[5] = target: SfurOBP11 (Sogatella furcifera, UniProt V5T6E3); assay: biochemical; assay type: binding
Summary of the method: as §1

SfurOBP11, sequence (V5T6E3 entry or part of it): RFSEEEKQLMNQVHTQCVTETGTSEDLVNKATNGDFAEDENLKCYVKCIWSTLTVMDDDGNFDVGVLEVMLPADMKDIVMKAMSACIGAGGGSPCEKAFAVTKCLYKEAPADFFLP
SfurOBP2, sequence (V5T759 entry or part of it): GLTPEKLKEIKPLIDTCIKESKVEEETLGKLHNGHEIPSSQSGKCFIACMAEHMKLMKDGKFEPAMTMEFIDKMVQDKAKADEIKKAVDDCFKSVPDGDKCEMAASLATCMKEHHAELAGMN
SfurOBP3, sequence (V5T818 entry or part of it): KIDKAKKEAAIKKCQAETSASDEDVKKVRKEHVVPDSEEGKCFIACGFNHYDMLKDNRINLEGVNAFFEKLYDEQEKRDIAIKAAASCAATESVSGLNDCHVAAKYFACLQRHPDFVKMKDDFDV
SfurOBP1, sequence (V5T8N5 entry or part of it): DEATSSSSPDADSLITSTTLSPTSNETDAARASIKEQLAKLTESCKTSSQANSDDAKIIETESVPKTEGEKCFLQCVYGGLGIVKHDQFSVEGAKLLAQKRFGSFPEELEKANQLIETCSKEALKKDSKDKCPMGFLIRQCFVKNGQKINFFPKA

## CCCCCC=O [caproaldehyde]
[1]
  number of insects choosing hexane arm: 9
  number of insects choosing volatilies arm: 12
  number of insects failed (no choice): 19
[2]; SfurOBP2, protein and 1-NPN both 2.0 µM, competitor 2-20 µM, read-out: IC50
  IC50: > 20 µM
[2]; ligand concentration 2 (unit not given), replicate column 1 of 3
  Fluorescence competitive binding assay, OBP2 (raw fluorescence reading): 19948
[2]; ligand concentration 2 (unit not given), replicate column 2 of 3
  Fluorescence competitive binding assay, OBP2 (raw fluorescence reading): 17721
[2]; ligand concentration 2 (unit not given), replicate column 3 of 3
  Fluorescence competitive binding assay, OBP2 (raw fluorescence reading): 20397
[2]; ligand concentration 4 (unit not given), replicate column 1 of 3
  Fluorescence competitive binding assay, OBP2 (raw fluorescence reading): 18968
[2]; ligand concentration 4 (unit not given), replicate column 2 of 3
  Fluorescence competitive binding assay, OBP2 (raw fluorescence reading): 18911
[2]; ligand concentration 4 (unit not given), replicate column 3 of 3
  Fluorescence competitive binding assay, OBP2 (raw fluorescence reading): 20133
[2]; ligand concentration 6 (unit not given), replicate column 1 of 3
  Fluorescence competitive binding assay, OBP2 (raw fluorescence reading): 20477
[2]; ligand concentration 6 (unit not given), replicate column 2 of 3
  Fluorescence competitive binding assay, OBP2 (raw fluorescence reading): 18306
[2]; ligand concentration 6 (unit not given), replicate column 3 of 3
  Fluorescence competitive binding assay, OBP2 (raw fluorescence reading): 21619
[2]; ligand concentration 8 (unit not given), replicate column 1 of 3
  Fluorescence competitive binding assay, OBP2 (raw fluorescence reading): 17546
[2]; ligand concentration 8 (unit not given), replicate column 2 of 3
  Fluorescence competitive binding assay, OBP2 (raw fluorescence reading): 19283
[2]; ligand concentration 8 (unit not given), replicate column 3 of 3
  Fluorescence competitive binding assay, OBP2 (raw fluorescence reading): 19094
[2]; ligand concentration 10 (unit not given), replicate column 1 of 3
  Fluorescence competitive binding assay, OBP2 (raw fluorescence reading): 16315
[2]; ligand concentration 10 (unit not given), replicate column 2 of 3
  Fluorescence competitive binding assay, OBP2 (raw fluorescence reading): 17446
[2]; ligand concentration 10 (unit not given), replicate column 3 of 3
  Fluorescence competitive binding assay, OBP2 (raw fluorescence reading): 18120
[2]; ligand concentration 12 (unit not given), replicate column 1 of 3
  Fluorescence competitive binding assay, OBP2 (raw fluorescence reading): 15600
[2]; ligand concentration 12 (unit not given), replicate column 2 of 3
  Fluorescence competitive binding assay, OBP2 (raw fluorescence reading): 16015
[2]; ligand concentration 12 (unit not given), replicate column 3 of 3
  Fluorescence competitive binding assay, OBP2 (raw fluorescence reading): 15598
[2]; ligand concentration 14 (unit not given), replicate column 1 of 3
  Fluorescence competitive binding assay, OBP2 (raw fluorescence reading): 15415
[2]; ligand concentration 14 (unit not given), replicate column 2 of 3
  Fluorescence competitive binding assay, OBP2 (raw fluorescence reading): 15014
[2]; ligand concentration 14 (unit not given), replicate column 3 of 3
  Fluorescence competitive binding assay, OBP2 (raw fluorescence reading): 15552
[2]; ligand concentration 16 (unit not given), replicate column 1 of 3
  Fluorescence competitive binding assay, OBP2 (raw fluorescence reading): 16559
[2]; ligand concentration 16 (unit not given), replicate column 2 of 3
  Fluorescence competitive binding assay, OBP2 (raw fluorescence reading): 13446
[2]; ligand concentration 16 (unit not given), replicate column 3 of 3
  Fluorescence competitive binding assay, OBP2 (raw fluorescence reading): 13014
[2]; ligand concentration 18 (unit not given), replicate column 1 of 3
  Fluorescence competitive binding assay, OBP2 (raw fluorescence reading): 16224
[2]; ligand concentration 18 (unit not given), replicate column 2 of 3
  Fluorescence competitive binding assay, OBP2 (raw fluorescence reading): 16658
[2]; ligand concentration 18 (unit not given), replicate column 3 of 3
  Fluorescence competitive binding assay, OBP2 (raw fluorescence reading): 15875
[2]; ligand concentration 20 (unit not given), replicate column 1 of 3
  Fluorescence competitive binding assay, OBP2 (raw fluorescence reading): 15466
[2]; ligand concentration 20 (unit not given), replicate column 2 of 3
  Fluorescence competitive binding assay, OBP2 (raw fluorescence reading): 14819
[2]; ligand concentration 20 (unit not given), replicate column 3 of 3
  Fluorescence competitive binding assay, OBP2 (raw fluorescence reading): 14364
[3]; ligand concentration 2 (μM)
  Fluorescence competitive binding assay, fluorescence intensity: 7058 and 6495 and 6761
[3]; ligand concentration 4 (μM)
  Fluorescence competitive binding assay, fluorescence intensity: 6839 and 6210 and 6737
[3]; ligand concentration 6 (μM)
  Fluorescence competitive binding assay, fluorescence intensity: 6250 and 6285 and 6245
[3]; ligand concentration 8 (μM)
  Fluorescence competitive binding assay, fluorescence intensity: 7860 and 6318 and 6460
[3]; ligand concentration 10 (μM)
  Fluorescence competitive binding assay, fluorescence intensity: 7929 and 6952 and 5745
[3]; ligand concentration 12 (μM)
  Fluorescence competitive binding assay, fluorescence intensity: 6197 and 6258 and 6135
[3]; ligand concentration 14 (μM)
  Fluorescence competitive binding assay, fluorescence intensity: 6889 and 6127 and 7279
[3]; ligand concentration 16 (μM)
  Fluorescence competitive binding assay, fluorescence intensity: 6363 and 6530 and 5971
[3]; ligand concentration 18 (μM)
  Fluorescence competitive binding assay, fluorescence intensity: 6197 and 6677 and 5953
[3]; ligand concentration 20 (μM)
  Fluorescence competitive binding assay, fluorescence intensity: 6241 and 6216 and 6243
[3]; SfurOBP1, protein and 1-NPN both 2.0 µM, competitor 2-20 µM, read-out: IC50
  IC50: > 20 µM
[4]; ligand concentration 2
  Fluorescence competitive binding assay, fluorescence intensity: 54416 and 49651 and 50603
[4]; ligand concentration 4
  Fluorescence competitive binding assay, fluorescence intensity: 47681 and 49063 and 52745
[4]; ligand concentration 6
  Fluorescence competitive binding assay, fluorescence intensity: 47400 and 49699 and 51997
[4]; ligand concentration 8
  Fluorescence competitive binding assay, fluorescence intensity: 47134 and 47465 and 47300
[4]; ligand concentration 10
  Fluorescence competitive binding assay, fluorescence intensity: 47300 and 47488 and 47127
[4]; ligand concentration 12
  Fluorescence competitive binding assay, fluorescence intensity: 41818 and 40552 and 41184
[4]; ligand concentration 14
  Fluorescence competitive binding assay, fluorescence intensity: 39535 and 41064 and 41296
[4]; ligand concentration 16
  Fluorescence competitive binding assay, fluorescence intensity: 37737 and 36118 and 39070
[4]; ligand concentration 18
  Fluorescence competitive binding assay, fluorescence intensity: 41678 and 41915 and 41872
[4]; ligand concentration 20
  Fluorescence competitive binding assay, fluorescence intensity: 43199 and 40517 and 41843
[4]; SfurOBP3, protein and 1-NPN both 2.0 µM, competitor 2-20 µM, read-out: IC50
  IC50: > 20 µM
[5]; SfurOBP11, protein and 1-NPN both 2.0 µM, competitor 2-20 µM, read-out: IC50
  IC50: > 20 µM
[5]; ligand concentration 2, replicate 1
  Fluorescence intensity, fluorescence competitive binding assay, OBP11: 29622
[5]; ligand concentration 2, replicate 2
  Fluorescence intensity, fluorescence competitive binding assay, OBP11: 27160
[5]; ligand concentration 2, replicate 3
  Fluorescence intensity, fluorescence competitive binding assay, OBP11: 24651
[5]; ligand concentration 4, replicate 1
  Fluorescence intensity, fluorescence competitive binding assay, OBP11: 27823
[5]; ligand concentration 4, replicate 2
  Fluorescence intensity, fluorescence competitive binding assay, OBP11: 29657
[5]; ligand concentration 4, replicate 3
  Fluorescence intensity, fluorescence competitive binding assay, OBP11: 29706
[5]; ligand concentration 6, replicate 1
  Fluorescence intensity, fluorescence competitive binding assay, OBP11: 29000
[5]; ligand concentration 6, replicate 2
  Fluorescence intensity, fluorescence competitive binding assay, OBP11: 25791
[5]; ligand concentration 6, replicate 3
  Fluorescence intensity, fluorescence competitive binding assay, OBP11: 27264
[5]; ligand concentration 8, replicate 1
  Fluorescence intensity, fluorescence competitive binding assay, OBP11: 26196
[5]; ligand concentration 8, replicate 2
  Fluorescence intensity, fluorescence competitive binding assay, OBP11: 25787
[5]; ligand concentration 8, replicate 3
  Fluorescence intensity, fluorescence competitive binding assay, OBP11: 26691
[5]; ligand concentration 10, replicate 1
  Fluorescence intensity, fluorescence competitive binding assay, OBP11: 22993
[5]; ligand concentration 10, replicate 2
  Fluorescence intensity, fluorescence competitive binding assay, OBP11: 24045
[5]; ligand concentration 10, replicate 3
  Fluorescence intensity, fluorescence competitive binding assay, OBP11: 23459
[5]; ligand concentration 12, replicate 1
  Fluorescence intensity, fluorescence competitive binding assay, OBP11: 23301
[5]; ligand concentration 12, replicate 2
  Fluorescence intensity, fluorescence competitive binding assay, OBP11: 22698
[5]; ligand concentration 12, replicate 3
  Fluorescence intensity, fluorescence competitive binding assay, OBP11: 22770
[5]; ligand concentration 14, replicate 1
  Fluorescence intensity, fluorescence competitive binding assay, OBP11: 21327
[5]; ligand concentration 14, replicate 2
  Fluorescence intensity, fluorescence competitive binding assay, OBP11: 20283
[5]; ligand concentration 14, replicate 3
  Fluorescence intensity, fluorescence competitive binding assay, OBP11: 20685
[5]; ligand concentration 16, replicate 1
  Fluorescence intensity, fluorescence competitive binding assay, OBP11: 18242
[5]; ligand concentration 16, replicate 2
  Fluorescence intensity, fluorescence competitive binding assay, OBP11: 16904
[5]; ligand concentration 16, replicate 3
  Fluorescence intensity, fluorescence competitive binding assay, OBP11: 18315
[5]; ligand concentration 18, replicate 1
  Fluorescence intensity, fluorescence competitive binding assay, OBP11: 21574
[5]; ligand concentration 18, replicate 2
  Fluorescence intensity, fluorescence competitive binding assay, OBP11: 21057
[5]; ligand concentration 18, replicate 3
  Fluorescence intensity, fluorescence competitive binding assay, OBP11: 21178
[5]; ligand concentration 20, replicate 1
  Fluorescence intensity, fluorescence competitive binding assay, OBP11: 19958
[5]; ligand concentration 20, replicate 2
  Fluorescence intensity, fluorescence competitive binding assay, OBP11: 19749
[5]; ligand concentration 20, replicate 3
  Fluorescence intensity, fluorescence competitive binding assay, OBP11: 19854
